Source: patent US12649980B2, “Three-dimensional surface for protein and small molecule microarrays” (The Johns Hopkins University, priority 2019, dated 2026)
pIC50: −log10 of the molar value.

Key:
[1] = tested on: Jurkat T; test: [3H]-2DG uptake assay in Jurkat T cells; assay type: cell-based, human
Method: Hay, Nat. Rev. […] To determine whether RgA could inhibit glucose uptake in cancer cell lines in addition to A549, the impact of RgA on [3H]-2DG uptake in six other cancer cell lines, including HCC1954, MCF-7, PANC10.05, Jurkat T, HeLa, and RKO was measured (FIG. 3A, Table 3).
The inhibitory activity of compounds on glucose transport was analyzed by measuring the cell uptake of [3H]-2DG as previously described. Ulanovskaya et al., Chem. Biol. 2011, 18, 222-230. Briefly, cells were washed twice and incubated in low-glucose medium for 10 min. Cells were added drugs and incubated for another 10 min before adding [3H]-2DG. After 10 min incubation with [3H]-2DG, cells were washed twice and lysed with 0.2 N NaOH plus 0.2% SDS. The cell lysate was transferred to a new tube containing 1 mL of optiphase supermix. Glucose uptake was quantified with a scintillation counter.

[2] = molecular target: T1, GLUT1 (Homo sapiens, UniProt P11166); test: rapafucin 3D microarray screen with GLUT1-containing cell lysate; assay type: binding; conditions: signal-to-background ratio, 3D surface, lysate of GLUT1-overexpressing HEK293T; hit if SBR > 3
T1 construct: The full-length human SLC2A1, SLC2A3, and SLC2A4 genes were PCR amplified and inserted into pLenti6M vector 2; expressed in transfected cells
T1 sequence (P11166 1-492): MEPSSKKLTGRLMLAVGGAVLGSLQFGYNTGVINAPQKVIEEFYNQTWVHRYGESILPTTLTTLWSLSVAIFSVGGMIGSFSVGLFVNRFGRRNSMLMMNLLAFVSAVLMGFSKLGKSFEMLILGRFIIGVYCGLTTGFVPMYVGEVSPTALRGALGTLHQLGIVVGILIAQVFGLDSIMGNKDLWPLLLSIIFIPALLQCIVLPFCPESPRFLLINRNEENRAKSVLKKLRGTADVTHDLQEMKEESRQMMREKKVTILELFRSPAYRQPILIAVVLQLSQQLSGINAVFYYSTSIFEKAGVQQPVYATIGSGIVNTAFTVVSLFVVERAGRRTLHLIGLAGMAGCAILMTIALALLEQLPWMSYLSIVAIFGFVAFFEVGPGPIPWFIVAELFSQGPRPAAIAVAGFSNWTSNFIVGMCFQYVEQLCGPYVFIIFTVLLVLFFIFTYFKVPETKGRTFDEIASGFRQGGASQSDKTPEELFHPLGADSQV
Text: (§1) Once stock solutions of the rapafucin library were arrayed on the 2D or 3D surface and most of solvent carrier was evaporated, the crosslinking reaction was initiated by irradiating the surfaces with 365-nm wavelength UV light. Kawatani and Osada, Medchemcomm 2014, 5, 277-287. […] To screen for GLUT1-interacting rapafucins, GLUT1 was stably overexpressed in HEK293T cells and generated cell lysates containing detergent-solubilized recombinant GLUT1 (FIG. 10). The GLUT1-containing cell lysate was then incubated on both 2D and 3D rapafucin microarrays. After washing the slides to remove unbound proteins, the bound GLUT1 protein was detected with anti-GLUT1 antibodies, followed by visualization with Cy5-labeled secondary antibodies using a microarray scanner. Rapafucins were scored as positive hits when the corresponding SBR was greater than 3. Based on this criterion, a total of 17 rapafucin hits and one positive control BAY-876, a specific GLUT1 inhibitor, Siebeneicher et al., ChemMedChem 2016, 11, 2261-2271, were identified on the 3D rapafucin microarray. In contrast, only one hit (WL13-F11, also among the 17 hits identified from the 3D rapafucin microarray) was identified on the 2D rapafucin microarray (Table 1, FIG. 11).
The amine substrates (Arrayit, SMM) were immerged in a mixture of 2-bromoisobutyryl bromide (BIBB, 0.1 mM, as initiator) and propionyl bromide (10 mM, as horizontal spacer) with triethylamine (15 mM) in DCM for 4 hours. A degassed polymerization reaction mixture, containing copper (II) chloride dihydrate (CuCl2, 4 mmol), 2,2′-bipyridine (2 mmol), 75 mmol monomers mixture of 2-(dimethylamino)ethyl methacrylate (DMAEMA) and poly(ethylene glycol) methacrylate (PEGMA Mn 360) in 500 mL Milli-Q/MeOH, was mixed with freshly made ascorbic acid (4 mmol). The mixture was applied to 50 slides for 6 hours under the argon atmosphere for the surface-initiated polymerization. A gradient ratio of PEGMA and DMAEMA was set, including 10:0, 8:2, 5:5, 2:8 and 0:10 for an optimization purpose. The terminals of the brushes were further functionalized by N,N′-disuccinimidyl carbonate (DSC, 10 mM) and 4-dimethylaminopyridine (DMAP,10 mM) in DMF overnight to form succinimidyl carbonate intermediate, and, successively, diazirine linker 1 (10 mM) and N,Ndiisopropylethylamine (DIPEA, 50 mM) in DMF for 2 hours to couple the photoaffinity linker in dark at room temperature. At the end, the substrates were immerged in a 50 mM ethanolamine in DMF to block the residual carboxylic moiety. The slides were thoroughly washed by DMF, EtOH and DCM and dried in a fuming cupboard and ready for spotting.
10 mM of rapafucins in DMSO from the library were spotted onto the slides with a high-precision microarrayer (Nanoprint, Arrayit, CA) for a desired pattern in dark, which was loaded with 16 100-μm diameter micro-spotting pins. The pin heads were thoroughly washed and sonicated in ethanol and dried for 4 times under a compassed air between each sample loading. After overnight evaporation, the slides were exposed to 365-nm wavelength UV irradiation for 4 J/cm^2 by CL-1000L UV crosslinker (UVP, CA) for rapafucins covalent immobilization. The slides were ultrasonic cleaned successively in DCM, MeOH and Milli-Q water and stored in a −20° C. freezer.
(§2) In the optimization experiments, the slides were incubated with 50 nM purified recombinant FKBP12 for 1 hour, while in the GLUT1 screening, 10 mg/mL of cell lysate containing DDM-solubilized GLUT1 from GLUT1 overexpressed HEK293T was incubated for 1 hour. Successively, primary antibody and CY5 labeled secondary antibody were added for 1 hour. The chips were washed in buffer A for 5 mins 3 times after the sample and antibodies incubation. After centrifugation, the dried chips were scanned by a microarray scanner (Genepix, US) at 635-nm wavelength. The final result was analyzed by GenePix software.

[3] = molecular target: T1, GLUT1; test: rapafucin 2D microarray screen with GLUT1-containing cell lysate; assay type: binding; conditions: signal-to-background ratio, 2D surface, same lysate and conditions
Text: as §1, §2

pIC50 [1]: 8.00
3D SBR [2]: 6.5 ± 1.4
2D SBR [3]: <3.0
SMILES: CCC(C)C1C(=O)NCC(=O)N(C)CCC=CC(=O)OCC(C)(C)C(=O)C(=O)N2CCCCC2C(=O)OC(CCc2ccc(OC)c(OC)c2)c2cccc(c2)NC(=O)CCC(=O)N(C)C(CC(C)C)C(=O)NC(Cc2ccccc2)C(=O)N1C (stereo not drawn) [JW11-D2, Rapaglutin A]
